These results are taken from patent US11479546B2, “Antimalarial hexahydropyrimidine analogues” (UCB Biopharma SRL, priority 2018, dated 2022).

pIC50: −log10 of the molar value.

In the experiment the test system is Plasmodium falciparum 3D7. In words: P. falciparum 3D7 asexual blood stage assay, Assay Procedure Version 2 (SYBR green readout). Format: cell-based. Conditions: Plasmodium falciparum, 3D7, Erythrocyte, 72 h, Version 2 of the assay procedure (asterisk *); 72 h incubation in infected erythrocytes; 50,000 nM to 15 nM. In short, it runs like this: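 P. falciparum 3D7 in A+ erythrocytes (5% haematocrit, 0.5% parasitaemia) exposed 72 h at 37 °C (1% O2, 3% CO2) to 20-point 1.5-fold titrations, final 50,000–15 nM in 0.5% DMSO. SYBR green in lysis buffer overnight, fluorescence 485/528 nm; % inhibition vs mefloquine and DMSO controls, EC50 from biphasic two-site fit.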
The compound `C[C@@]1(c2cccc(Nc3ccc(F)cc3OC(F)F)c2Cl)CC(=O)N(C2CCOCC2)C(=N)N1` [Example 92, (6S)-6-{2-Chloro-3-[2-(difluoro-methoxy)-4-fluoro-anilino]-phenyl}-2-imino-6-methyl-3-(tetrahydropyran-4-yl)-hexahydropyrimidin-4-one] gave a pIC50 of 6.34. As for `Cc1ncc(Nc2cccc([C@]3(C)CC(=O)N(C4CCOCC4)C(=N)N3)c2Cl)cc1C(F)(F)F` [Example 93, (6S)-6-(2-Chloro-3-{[6-methyl-5-(trifluoromethyl)pyridin-3-yl]-amino}phenyl)-2-imino-6-methyl-3-(tetrahydropyran-4-yl)hexahydropyrimidin-4-one], the pIC50 is 7.15.

Regarding `Cc1ccc(Nc2cccc([C@]3(C)CC(=O)N(C4CCOCC4)C(=N)N3)c2Cl)c(OC(F)F)n1` [Example 94, (6S)-6-(2-Chloro-3-{[2-(difluoromethoxy)-6-methyl-pyridin-3-yl]amino}phenyl)-2-imino-6-methyl-3-(tetrahydro-pyran-4-yl)hexahydropyrimidin-4-one], the pIC50 is 7.47. Turning to `C[C@@]1(c2cccc(Nc3cnc(OC(F)F)c4ccccc34)c2Cl)CC(=O)N(C2CCOCC2)C(=N)N1` [Example 95, (6S)-6-(2-Chloro-3-{[1-(difluoromethoxy)isoquinolin-4-yl]amino}phenyl)-2-imino-6-methyl-3-(tetrahydropyran-4-yl)hexahydropyrimidin-4-one], the negative logarithm of the IC50 (pIC50) is 6.34. For `C[C@@]1(c2cccc(Nc3ccc(C#N)cc3OC(F)F)c2Cl)CC(=O)N(C2CCOCC2)C(=N)N1` [Example 96, 4-{2-Chloro-3-[(4S)-2-imino-4-methyl-6-oxo-1-(tetrahydro-pyran-4-yl)hexahydropyrimidin-4-yl]anilino}-3-(difluoro-methoxy)benzonitrile] the value was 6.71. For `C[C@@]1(c2cccc(Nc3cccnc3OC(F)F)c2Cl)CC(=O)N(C2CCOCC2)C(=N)N1` [Example 97, (6S)-6-(2-Chloro-3-{[2-(difluoromethoxy)pyridin-3-yl]-amino}phenyl)-2-imino-6-methyl-3-(tetrahydropyran-4-yl)hexahydropyrimidin-4-one] the value was 6.67; for `C[C@@]1(c2cccc(Nc3cc4ccccc4nc3OC(F)F)c2Cl)CC(=O)N(C2CCOCC2)C(=N)N1` [Example 98, (6S)-6-(2-Chloro-3-{[2-(difluoromethoxy)quinolin-3-yl]amino}phenyl)-2-imino-6-methyl-3-(tetrahydropyran-4-yl)hexahydropyrimidin-4-one], 6.65. To `C[C@@]1(c2cccc(Nc3ccc(C4CC4)nc3)c2Cl)CC(=O)N(C2CCOCC2)C(=N)N1` [Example 99, (6S)-6-{2-Chloro-3-[(6-cyclo-propylpyridin-3-yl)amino]-phenyl}-2-imino-6-methyl-3-(tetrahydropyran-4-yl)-hexahydropyrimidin-4-one] belongs 7.18; to `C[C@@]1(c2cccc(Nc3ccc(C(F)F)nc3C#N)c2Cl)CC(=O)N(C2CCOCC2)C(=N)N1` [Example 100, 3-{2-Chloro-3-[(4S)-2-imino-4-methyl-6-oxo-1-(tetrahydro-pyran-4-yl)hexahydropyrimidin-4-yl]anilino}-6-(difluoro-methyl)pyridine-2-carbonitrile], 6.46; to `C[C@@]1(c2cccc(Nc3nccnc3OC(F)F)c2Cl)CC(=O)N(C2CCOCC2)C(=N)N1` [Example 101, (6S)-6-(2-Chloro-3-{[3-(difluoromethoxy)pyrazin-2-yl]-amino}phenyl)-2-imino-6-methyl-3-(tetrahydropyran-4-yl)hexahydropyrimidin-4-one], 7.01. The compound `C[C@@]1(c2cccc(Nc3ncccc3OC(F)F)c2Cl)CC(=O)N(C2CCOCC2)C(=N)N1` [Example 102, (6S)-6-(2-Chloro-3-{[3-(difluoromethoxy)pyridin-2-yl]-amino}phenyl)-2-imino-6-methyl-3-(tetrahydropyran-4-yl)hexahydropyrimidin-4-one] had a negative logarithm of the IC50 (pIC50) of 6.71.

`C[C@@]1(c2cccc(Nc3ccc(C4(C#N)CCC4)nc3)c2Cl)CC(=O)N(C2CCOCC2)C(=N)N1` [Example 103, 1-(5-{2-Chloro-3-[(4S)-2-imino-4-methyl-6-oxo-1-(tetrahydro-pyran-4-yl)hexahydropyrimidin-4-yl]anilino}pyridin-2-yl)-cyclobutanecarbonitrile] had a pIC50 of 6.26. `C[C@@]1(c2cccc(Nc3ccc(F)cc3S(C)(=O)=O)c2Cl)CC(=O)N(C2CCOCC2)C(=N)N1` [Example 104, (6S)-6-{2-Chloro-3-[4-fluoro-2-(methylsulfonyl)anilino]-phenyl}-2-imino-6-methyl-3-(tetrahydropyran-4-yl)-hexahydropyrimidin-4-one] had a pIC50 of 6.88. `CC(C)(C)c1ccc(Nc2cccc([C@]3(C)CC(=O)N(C4CCOCC4)C(=N)N3)c2Cl)cn1` [Example 105, (6S)-6-{3-[(6-tert-Butylpyridin-3-yl)amino]-2-chlorophenyl}-2-imino-6-methyl-3-(tetrahydro-pyran-4-yl)hexahydropyrimidin-4-one] gave a negative logarithm of the IC50 (pIC50) of 6.50. For `C[C@@]1(c2cccc(Nc3ccc(C4CCC4)nc3)c2Cl)CC(=O)N(C2CCOCC2)C(=N)N1` [Example 106, (6S)-6-{2-Chloro-3-[(6-cyclo-butylpyridin-3-yl)amino]-phenyl}-2-imino-6-methyl-3-(tetrahydropyran-4-yl)-hexahydropyrimidin-4-one] the value was 6.43. For `CC(C)(C)c1cnc(Nc2cccc([C@]3(C)CC(=O)N(C4CCOCC4)C(=N)N3)c2Cl)cn1` [Example 107, (6S)-6-{3-[(5-tert-Butylpyrazin-2-yl)amino]-2-chlorophenyl}-2-imino-6-methyl-3-(tetrahydro-pyran-4-yl)hexahydropyrimidin-4-one] the value was 6.06; for `C[C@@]1(c2cccc(Nc3ccn4ccnc4c3)c2Cl)CC(=O)N(C2CCOCC2)C(=N)N1` [Example 108, (6S)-6-[2-Chloro-3-(imidazo-[1,2-a]pyridin-7-ylamino)-phenyl]-2-imino-6-methyl-3-(tetrahydropyran-4-yl)-hexahydropyrimidin-4-one], 5.69.

Regarding `C[C@@]1(c2cccc(Nc3ccccc3N=S(C)(C)=O)c2Cl)CC(=O)N(C2CCOCC2)C(=N)N1` [Example 109, (6S)-6-[2-Chloro-3-(2-{[dimethyl(oxo)-λ^6-sulfanylidene]amino}anilino)-phenyl]-2-imino-6-methyl-3-(tetrahydropyran-4-yl)-hexahydropyrimidin-4-one], the pIC50 was 6.09. `Cc1cc(Cl)c(Nc2cccc([C@]3(C)CC(=O)N(C4CCOCC4)C(=N)N3)c2Cl)cn1` [Example 110, (6S)-6-{2-Chloro-3-[(4-chloro-6-methylpyridin-3-yl)amino]-phenyl}-2-imino-6-methyl-3-(tetrahydropyran-4-yl)-hexahydropyrimidin-4-one] gave a pIC50 of 6.64. To `CCc1ccc(Nc2cccc([C@]3(C)CC(=O)N(C4CCOCC4)C(=N)N3)c2Cl)cn1` [Example 111, (6S)-6-{2-Chloro-3-[(6-ethyl-pyridin-3-yl)amino]phenyl}-2-imino-6-methyl-3-(tetrahydro-pyran-4-yl)hexahydropyrimidin-4-one] belongs 6.61; to `C[C@@]1(c2cccc(Nc3ccc(OCC(F)(F)F)nc3)c2Cl)CC(=O)N(C2CCOCC2)C(=N)N1` [Example 112, (6S)-6-(2-Chloro-3-{[6-(2,2,2-trifluoroethoxy)pyridin-3-yl]-amino}phenyl)-2-imino-6-methyl-3-(tetrahydropyran-4-yl)hexahydropyrimidin-4-one], 6.19. For `C[C@@]1(c2cccc(Nc3ccc(N4CCC4)nc3)c2Cl)CC(=O)N(C2CCOCC2)C(=N)N1` [Example 113, (6S)-6-(3-{[6-(Azetidin-1-yl)-pyridin-3-yl]amino}-2-chloro-phenyl)-2-imino-6-methyl-3-(tetrahydropyran-4-yl)-hexahydropyrimidin-4-one] the value was 6.65; for `C[C@@]1(c2cccc(Nc3ccc(-n4cncn4)nc3)c2Cl)CC(=O)N(C2CCOCC2)C(=N)N1` [Example 114, (6S)-6-(2-Chloro-3-{[6-(1,2,4-triazol-1-yl)pyridin-3-yl]-amino}phenyl)-2-imino-6-methyl-3-(tetrahydropyran-4-yl)hexahydropyrimidin-4-one], 6.28; for `Cn1ncc2cc(Nc3cccc([C@]4(C)CC(=O)N(C5CCOCC5)C(=N)N4)c3Cl)cnc21` [Example 115, (6S)-6-{2-Chloro-3-[(1-methyl-pyrazolo[3,4-b]pyridin-5-yl)-amino]phenyl}-2-imino-6-methyl-3-(tetrahydropyran-4-yl)hexahydropyrimidin-4-one], 6.18. For `Cn1cnc2cc(Nc3cccc([C@]4(C)CC(=O)N(C5CCOCC5)C(=N)N4)c3Cl)cnc21` [Example 116, (6S)-6-{2-Chloro-3-[(3-methyl-imidazo[4,5-b]pyridin-6-yl)-amino]phenyl}-2-imino-6-methyl-3-(tetrahydropyran-4-yl)hexahydropyrimidin-4-one] the value was 6.25.

Turning to `Cn1nnc(-c2ccc(Nc3cccc([C@]4(C)CC(=O)N(C5CCOCC5)C(=N)N4)c3Cl)cn2)n1` [Example 117, (6S)-6-(2-Chloro-3-{[6-(2-methyltetrazol-5-yl)pyridin-3-yl]amino}phenyl)-2-imino-6-methyl-3-(tetrahydropyran-4-yl)hexahydropyrimidin-4-one], the pIC50 is 6.15. In turn, `C[C@@]1(c2cccc(Nc3ccc(Cl)cc3S(C)(=O)=O)c2Cl)CC(=O)N(C2CCOCC2)C(=N)N1` [Example 118, (6S)-6-{2-Chloro-3-[4-chloro-2-(methylsulfonyl)anilino]-phenyl}-2-imino-6-methyl-3-(tetrahydropyran-4-yl)-hexahydropyrimidin-4-one] had a negative logarithm of the IC50 (pIC50) of 6.86.

As a reminder, the pIC50 is −log10 of the IC50, conventionally taken in molar units. Lower therefore signals a large IC50.
